Assay results published in patent publication US8470766B2, “Protein kinase C therapy for the treatment of acute lung injury” (The Children's Hospital of Philadelphia, priority 2006, dated 2013).

Test system: neutrophils
Assay: TNF suppression of neutrophil apoptosis, kinase inhibitor pretreatment (initial studies)
Assay type: cell-based
Settings: pretreatment with kinase inhibitor
Excerpt: δ-PKC has been identified as an important regulator of cytokine mediated anti-apoptotic and pro-inflammatory signaling in adherent neutrophils (Kilpatrick, L. E., et al. (2002) Am J Physiol Cell Physiol 283, C48-57; Kilpatrick, L. E., et al. (2004) Am J Physiol Cell Physiol 287, C633-42; Kilpatrick, L. E., et al. (2006) J Leukoc Biol. 80:1512-1521; Kilpatrick, L. E., et al. (2000) Am J Physiol Cell Physiol 279, C2011-8). Neutrophils undergo spontaneous apoptosis which can be suppressed in vitro by culturing cells in the presence of cytokines such as TNF (Kilpatrick, L. E., et al. (2002) Am J Physiol Cell Physiol 283, C48-57; Kilpatrick, L. E., et al. (2006) J Leukoc Biol. 80:1512-1521). […] Activation of caspases is one of the earliest markers of apoptosis occurring upstream of DNA fragmentation and PS externalization. Caspase 3 plays a critical role in spontaneous neutrophil apoptosis (Kilpatrick, L. E., et al. (2002) Am J Physiol Cell Physiol 283, C48-57; Daigle, I., Simon, H. U. (2001) Int Arch Allergy Immunol 126, 147-56; Scheel-Toellner, D., et al. (2004) Blood 104, 2557-64). […] However, recent reports have raised issues about the specificity of rottlerin as a δ-PKC inhibitor (Davies, S. P., et al. (2000) Biochem J 351, 95-105). To establish a role specifically for δ-PKC in the TNF-mediated anti-apoptotic signaling, a more specific inhibitor is required. […]

With CC(=O)c1c(O)c(C)c(O)c(Cc2c(O)c3c(c(C(=O)/C=C/c4ccccc4)c2O)OC(C)(C)C=C3)c1O [rottlerin] the “suppression of neutrophil apoptosis by TNF” value was “inhibited”.
